# Measurements: patent publication US20210008083A1, “USE OF A BISPHOSPHONATE SALT IN A MEDICAMENT FOR A NATURALLY OCCURRING DISEASE/DISORDER IN A MAMMAL” (Ostafit B.V., priority 2016, published 2021)
# Tests used:
# [1] = system: osteoarthritis or similar complaints
# Protocol: (§1) The following experiments were performed during November 2015-May 2016. In various veterinarian locations in the Netherlands the animals were treated or occasionally the animals were treated on a farm in a stable.
# For cats it is preferred to provide the dosage in a subcutaneous manner.
# [2] = system: various disorders and disease; experiment: Present bisphosphonates tested on various naturally occurring disorders and diseases in mammals; set-up: species or system mammals (horses, donkeys, cows, dogs and cats); details: dog, in vivo
# Description: A repetition may be given after 4-12 months. […] In general it is noted that timing of potential benefit of antiresorptives in OA might be important. The greatest benefit in the prior art is typically seen very early in the disease. So to maintain the normal attitude mode, typically once per 1-12 month, preferably once per 2-6 months, such as once per 3-5 month, or put different 1-6 times per year, preferably 2-6 times per year, such as 3-4 times per year.
# For better understanding of these diseases and disorders, the following section is added, such as to categorize these.
# (§2) Typical symptoms for dogs and other animals mentioned in the description are lameness, stiffness, especially in the morning, after a stroll and when starting, moving with relatively short steps, a preference for lying down, no stamina, various difficulties/limitations, such as in rising or lying down, in keeping up walking pace, rising a leg, jumping on a couch, tail between the legs and squealing from pain.
# [3] = system: hip osteoarthritis; details: oral 35 mg once a week, 2 years; cited from earlier work
# [4] = system: osteoarthritis in the SI joint; details: one donkey, treated in line with the horses
# Protocol: as §1
# One donkey was treated in line with the horses above.
# [5] = system: osteoarthritis; details: 1 bull, 6 years, 0.2 mg/kg intravenous
# Protocol: as §1
# [6] = system: osteoarthritis or similar complaints; details: 24 dogs, 5-15 years, 0.20 mg/kg intravenous during about 15 min
# Protocol: as §1, §2
# [7] = system: primary osteoarthritis; details: guinea pig model of primary osteoarthritis; cited from earlier work
# [8] = system: knee osteoarthritis; details: 2-year period; cited from earlier work
structure (smiles),measurement,setting,value
"NCCCC(O)(P(=O)(O)O)P(=O)(O)O.O.O.O [Alendronate, [4-amino-1-hydroxy-1-(hydroxy-oxido-phosphoryl)-butyl]phosphonic acid trihydrate]",cats free of complaints,"[1]; eight cats, 12-18 years, 0.2 mg/kg subcutaneous or intravenous, one cat still had complaints (other medicines withdrawn)",Seven cats were free of complaints within a few weeks
same,cats showing a good response (substantially free of complaints),[1]; later experiments on more cats,more than 75%
same,outcome of testing on various disorders and disease,[2],tested on various disorders and disease with success
same,clinical efficacy on pain,[3],had clinical efficacy of pain reduction
same,effect on structural progression of hip osteoarthritis,[3],failed to show preventive effects for structural progression of hip osteoarthritis
same,result of treatment in donkey,[4],results here were fine
same,bull free of complaints,[5],free of complaints within a month
same,complaints of dogs after treatment,[6],All dogs have significantly less complaints or were free of complaints within a few weeks
same,effect on disease progression,[7],Risedronate but not Alendronate slows disease progression
CCCCCN(C)CCC(O)(P(=O)(O)O)P(=O)(O)O [Ibandronate],outcome of testing on various disorders and disease,[2],tested on various disorders and disease with success
NCCCCCC(O)(P(=O)(O)O)P(=O)(O)O [Nerodronate],outcome of testing on various disorders and disease,[2],tested on various disorders and disease with success
CN(C)CCC(O)(P(=O)(O)O)P(=O)(O)O [Olpadronate],outcome of testing on various disorders and disease,[2],tested on various disorders and disease with success
NCCC(O)(P(=O)(O)O)P(=O)(O)O [Pamidronate],outcome of testing on various disorders and disease,[2],tested on various disorders and disease with success
O=P(O)(O)C(O)(Cc1cccnc1)P(=O)(O)O [Risedronate],symptom improvement or progression of radiographic osteoarthritis vs placebo,[8],no significant differences in symptom improvement or progression of radiographic osteoarthritis
same,outcome of testing on various disorders and disease,[2],tested on various disorders and disease with success
same,effect on disease progression,[7],slows disease progression
O=P(O)(O)C(O)(Cn1ccnc1)P(=O)(O)O [Zoledronate],outcome of testing on various disorders and disease,[2],tested on various disorders and disease with success
